For the assay, the system named is P388 leukemia ip, CD2F1 mice, survival T/C. The experiment in a line: NCI In Vivo Anticancer Drug Screen. Data for tumor model P388 Leukemia (intraperitoneal) in CD2F1 (CDF1) mice. The conditions noted are these: endpoint: median survival time, higher = longer survival. The procedure, abridged:
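Mice carrying the transplanted tumor received test compound or vehicle. Survival was recorded in each group, and the value is the treated-group measurement divided by that of the vehicle-treated control group.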

[1] abbreviates: dose: 100.0 mg/kg/injection, schedule: Q04DX002 (ip), vehicle: suspension in saline.
[2] abbreviates: dose: 200.0 mg/kg/injection, schedule: Q04DX002 (ip), vehicle: suspension in saline.
Setting [3] is: dose: 100.0 mg/kg/injection, schedule: Q01DX009 (ip), vehicle: saline with Tween-80.
[4] abbreviates: dose: 200.0 mg/kg/injection, schedule: Q01DX009 (ip), vehicle: saline with Tween-80.
Setting [5] is: dose: 50.0 mg/kg/injection, schedule: Q01DX005 (ip), vehicle: saline with Tween-80.
Setting [6] is: dose: 100.0 mg/kg/injection, schedule: Q01DX005 (ip), vehicle: saline with Tween-80.
The mark [7] stands for this setting: dose: 200.0 mg/kg/injection, schedule: Q01DX005 (ip), vehicle: saline with Tween-80.
Where [8] appears, read: dose: 50.0 mg/kg/injection, schedule: Q01DX009 (ip), vehicle: saline with Tween-80.
[9] abbreviates: dose: 100.0 mg/kg/injection, schedule: Q01DX001 (ip), vehicle: saline with Tween-80.
Where [10] appears, read: dose: 200.0 mg/kg/injection, schedule: Q01DX001 (ip), vehicle: saline with Tween-80.
Setting [11] is: dose: 100.0 mg/kg/injection, schedule: Q04DX002 (ip), vehicle: Klucel (hydroxypropylcellulose) (HPC).
Where [12] appears, read: dose: 200.0 mg/kg/injection, schedule: Q04DX002 (ip), vehicle: Klucel (hydroxypropylcellulose) (HPC).
Setting [13] is: dose: 100.0 mg/kg/injection, schedule: Q04DX003 (ip), vehicle: saline with Tween-80.
Setting [14] is: dose: 200.0 mg/kg/injection, schedule: Q04DX003 (ip), vehicle: saline with Tween-80.
Setting [15] is: dose: 50.0 mg/kg/injection, schedule: Q01DX005 (ip), vehicle: Klucel (hydroxypropylcellulose) (HPC).
The mark [16] stands for this setting: dose: 100.0 mg/kg/injection, schedule: Q01DX005 (ip), vehicle: Klucel (hydroxypropylcellulose) (HPC).
[17] abbreviates: dose: 200.0 mg/kg/injection, schedule: Q01DX005 (ip), vehicle: Klucel (hydroxypropylcellulose) (HPC).

Values joined by “and” are separate entries in the source; they are usually repeats but may differ in a detail not shown here. Identical values can stand only once. Toxic doses and inconclusive results are not listed.

`N[C@@H](Cc1c[nH]c2ccccc12)C(=O)Nc1nncs1`: the T/C reads like this: (dose: 18.75 mg/kg/injection, schedule: Q01DX005 (ip), vehicle: saline) 100 % of control and 102 % of control; (dose: 37.5 mg/kg/injection, schedule: Q01DX005 (ip), vehicle: saline) 98 % of control and 101 % of control; (dose: 50.0 mg/kg/injection, schedule: Q04DX002 (ip), vehicle: suspension in saline) 100 % of control; (dose: 75.0 mg/kg/injection, schedule: Q01DX005 (ip), vehicle: saline) 100 % of control and 101 % of control; under setting [1], 100 % of control; (dose: 150.0 mg/kg/injection, schedule: Q01DX005 (ip), vehicle: saline) 99 % of control and 100 % of control. The T/C under setting [2] was 99 % of control; the T/C (dose: 300.0 mg/kg/injection, schedule: Q01DX005 (ip), vehicle: saline) was 106 % of control and 109 % of control; the T/C (dose: 600.0 mg/kg/injection, schedule: Q04DX002 (ip), vehicle: saline) was 171 % of control; the T/C (dose: 800.0 mg/kg/injection, schedule: Q04DX002 (ip), vehicle: suspension in saline) is 151 % of control.
As to `CCCC1=CC(C)(C)CC(C)=C1` (tested in a mixture with another compound), the T/C (dose: 50.0 mg/kg/injection, schedule: Q01DX009 (ip), vehicle: saline sonified) was 95 % of control; the T/C (dose: 100.0 mg/kg/injection, schedule: Q01DX009 (ip), vehicle: saline sonified) was 95 % of control; the T/C (dose: 200.0 mg/kg/injection, schedule: Q01DX009 (ip), vehicle: saline sonified) was 90 % of control.
As for `Nc1n[nH]c(=S)n1-c1ccc(Cl)cc1`, the T/C was 115 % of control under setting [3]; 120 % of control under setting [4]; 120 % of control (dose: 400.0 mg/kg/injection, schedule: Q01DX009 (ip), vehicle: saline with Tween-80).
In the case of `CC(Oc1cc(Cl)c(Cl)cc1Cl)C(=O)NC(C(=O)O)C(C)C` (stereo unspecified), the T/C runs as follows: under setting [5], 97 % of control and 100 % of control; under setting [6], 91 % of control and 106 % of control; under setting [7], 97 % of control and 111 % of control.
Turning to `O=[N+]([O-])c1ccc(Cl)c(S(=O)(=O)Cl)c1`, the T/C by setting is: under setting [5], 97 % of control; under setting [6], 88 % of control; under setting [7], 92 % of control.
Regarding `O=C(O)c1cccc(C(=O)O)c1O`, the T/C is 102 % of control (dose: 50.0 mg/kg/injection, schedule: Q01DX001 (ip), vehicle: saline with Tween-80); 100 % of control under setting [8]; 105 % of control under setting [9]; 103 % of control under setting [3]; 110 % of control under setting [10]; 94 % of control under setting [4].
For the compound `COC1=CS(C)(=O)=CC(SC)=C1C#N` (stereo unspecified), the T/C reads like this: (dose: 50.0 mg/kg/injection, schedule: Q04DX002 (ip), vehicle: Klucel (hydroxypropylcellulose) (HPC)) 99 % of control; under setting [11], 99 % of control; under setting [12], 98 % of control.
For the compound `CC(C(=O)O)c1ccc2sc(-c3ccccc3)nc2c1` (stereo unspecified), the T/C is, setting by setting: (dose: 50.0 mg/kg/injection, schedule: Q01DX009 (ip), vehicle: Klucel (hydroxypropylcellulose) (HPC)) 102 % of control; (dose: 100.0 mg/kg/injection, schedule: Q01DX009 (ip), vehicle: Klucel (hydroxypropylcellulose) (HPC)) 100 % of control; (dose: 200.0 mg/kg/injection, schedule: Q01DX009 (ip), vehicle: Klucel (hydroxypropylcellulose) (HPC)) 98 % of control.
As to `O=S1(=O)CC(N2CCCCC2)C=C(c2ccccc2)O1` (stereo unspecified), the T/C under setting [8] is 103 % of control, the T/C under setting [3] is 98 % of control and the T/C under setting [4] is 95 % of control.
`CN1C(=O)/C(=C2\Sc3ccccc3NC2=O)SC1=S`: the T/C runs as follows: (dose: 50.0 mg/kg/injection, schedule: Q04DX003 (ip), vehicle: saline with Tween-80) 92 % of control; under setting [13], 95 % of control; under setting [14], 102 % of control.
`CN(C)c1nc(OC2C(C3COC(C)(C)O3)OC3OC(C)(C)OC32)nc(N(C)C)n1` (stereo unspecified): the T/C under setting [13] is 99 % of control; the T/C under setting [14] is 100 % of control; the T/C (dose: 400.0 mg/kg/injection, schedule: Q04DX003 (ip), vehicle: saline with Tween-80) is 100 % of control.
As for `Cc1ccc(NC(=O)CCC(=O)NS(C)(=O)=O)cc1`, the T/C runs as follows: under setting [9], 94 % of control; under setting [10], 94 % of control; (dose: 400.0 mg/kg/injection, schedule: Q01DX001 (ip), vehicle: saline with Tween-80) 95 % of control.
Regarding `O=C(Nc1ccccc1)Nc1ccc(OCc2ccccc2)cc1`, the T/C under setting [8] was 90 % of control, the T/C under setting [3] is 88 % of control and the T/C under setting [4] is 114 % of control.
Consider `Cc1ccc2[nH]c3c(c2c1)-c1ncncc1CC3`, for which the T/C is 104 % of control under setting [11] and 92 % of control under setting [12].
On to `CS(=O)(=O)OCC1CCSC1=O` (stereo unspecified), for which the T/C is 100 % of control under setting [8], 106 % of control under setting [3] and 108 % of control under setting [4].
Regarding `C[n+]1ccc2ccccc2c1C#N`, the T/C is, setting by setting: (dose: 12.5 mg/kg/injection, schedule: Q04DX003 (ip), vehicle: saline) 106 % of control; (dose: 25.0 mg/kg/injection, schedule: Q04DX003 (ip), vehicle: saline) 98 % of control.
Regarding `CC1(C)CC(NCc2ccccc2)=CC(=S)N1`, the T/C runs as follows: under setting [15], 100 % of control; under setting [16], 103 % of control; under setting [17], 93 % of control.
In the case of `O=C(Oc1c(Cc2ccccc2)c(=O)[nH]c2ccccc12)c1ccccc1`, the T/C is, setting by setting: (dose: 60.0 mg/kg/injection, schedule: Q01DX005 (ip), vehicle: Klucel (hydroxypropylcellulose) (HPC)) 90 % of control; (dose: 120.0 mg/kg/injection, schedule: Q01DX005 (ip), vehicle: Klucel (hydroxypropylcellulose) (HPC)) 89 % of control.
For the compound `CN=C(NC(C)C)c1ccc(NC(=O)c2ccc(C(=O)Nc3ccc(C(=NC)NC(C)C)cc3)cc2)cc1`, the T/C runs as follows: (dose: 32.0 mg/kg/injection, schedule: Q01DX009 (ip), vehicle: saline) 122 % of control; (dose: 64.0 mg/kg/injection, schedule: Q01DX009 (ip), vehicle: saline) 109 % of control; (dose: 96.0 mg/kg/injection, schedule: Q04DX003 (ip), vehicle: saline with Tween-80) 154 % of control.
As to `C1=NC2=C(CCc3ccccc32)C2=NCCN12`, the T/C is, setting by setting: (dose: 10.0 mg/kg/injection, schedule: Q04DX002 (ip), vehicle: saline with Tween-80) 100 % of control; (dose: 20.0 mg/kg/injection, schedule: Q04DX002 (ip), vehicle: saline with Tween-80) 96 % of control; (dose: 40.0 mg/kg/injection, schedule: Q04DX002 (ip), vehicle: saline with Tween-80) 100 % of control.
On to `O=C(CCl)NCCCl`, for which the T/C is 97 % of control (dose: 50.0 mg/kg/injection, schedule: Q01DX009 (ip), vehicle: saline) and 100 % of control (dose: 100.0 mg/kg/injection, schedule: Q01DX009 (ip), vehicle: saline).
Turning to `Cc1nc2nc(O)c(Cc3ccccc3)c(=O)n2nc1C`, the T/C by setting is: under setting [15], 95 % of control; under setting [16], 93 % of control; under setting [17], 95 % of control.
As to `COC(C)(C)c1ccccc1[S+]1OC(C)(C)c2ccccc21` (stereo unspecified), the T/C reads like this: under setting [1], 96 % of control; under setting [2], 100 % of control; (dose: 400.0 mg/kg/injection, schedule: Q04DX002 (ip), vehicle: suspension in saline) 109 % of control.
For the compound `Ic1cc2c(cc1C1CO1)OCO2` (stereo unspecified), the T/C is 103 % of control (dose: 100.0 mg/kg/injection, schedule: Q01DX001 (ip), vehicle: Klucel (hydroxypropylcellulose) (HPC)); 99 % of control (dose: 200.0 mg/kg/injection, schedule: Q01DX001 (ip), vehicle: Klucel (hydroxypropylcellulose) (HPC)); 96 % of control (dose: 400.0 mg/kg/injection, schedule: Q01DX001 (ip), vehicle: Klucel (hydroxypropylcellulose) (HPC)).
Regarding `N=c1oc2ccccc2cc1C(=O)NNC(=O)c1ccncc1`, the T/C by setting is: (dose: 100.0 mg/kg/injection, schedule: Q01DX001 (ip), vehicle: saline) 96 % of control; (dose: 200.0 mg/kg/injection, schedule: Q01DX001 (ip), vehicle: saline) 96 % of control; (dose: 400.0 mg/kg/injection, schedule: Q01DX001 (ip), vehicle: saline) 102 % of control.

These data come from PubChem BioAssay AID330 (DTP/NCI, 2004).
